The source of these data is the Kinase Knowledgebase extract (Sharma et al. 2016).

The term IC50 denotes the point on the concentration scale where inhibition reaches its midpoint.

For this assay, the target named is EGFR (human) (UniProt P00533).
Sequence of EGFR (human) (P00533 whole entry, looked up): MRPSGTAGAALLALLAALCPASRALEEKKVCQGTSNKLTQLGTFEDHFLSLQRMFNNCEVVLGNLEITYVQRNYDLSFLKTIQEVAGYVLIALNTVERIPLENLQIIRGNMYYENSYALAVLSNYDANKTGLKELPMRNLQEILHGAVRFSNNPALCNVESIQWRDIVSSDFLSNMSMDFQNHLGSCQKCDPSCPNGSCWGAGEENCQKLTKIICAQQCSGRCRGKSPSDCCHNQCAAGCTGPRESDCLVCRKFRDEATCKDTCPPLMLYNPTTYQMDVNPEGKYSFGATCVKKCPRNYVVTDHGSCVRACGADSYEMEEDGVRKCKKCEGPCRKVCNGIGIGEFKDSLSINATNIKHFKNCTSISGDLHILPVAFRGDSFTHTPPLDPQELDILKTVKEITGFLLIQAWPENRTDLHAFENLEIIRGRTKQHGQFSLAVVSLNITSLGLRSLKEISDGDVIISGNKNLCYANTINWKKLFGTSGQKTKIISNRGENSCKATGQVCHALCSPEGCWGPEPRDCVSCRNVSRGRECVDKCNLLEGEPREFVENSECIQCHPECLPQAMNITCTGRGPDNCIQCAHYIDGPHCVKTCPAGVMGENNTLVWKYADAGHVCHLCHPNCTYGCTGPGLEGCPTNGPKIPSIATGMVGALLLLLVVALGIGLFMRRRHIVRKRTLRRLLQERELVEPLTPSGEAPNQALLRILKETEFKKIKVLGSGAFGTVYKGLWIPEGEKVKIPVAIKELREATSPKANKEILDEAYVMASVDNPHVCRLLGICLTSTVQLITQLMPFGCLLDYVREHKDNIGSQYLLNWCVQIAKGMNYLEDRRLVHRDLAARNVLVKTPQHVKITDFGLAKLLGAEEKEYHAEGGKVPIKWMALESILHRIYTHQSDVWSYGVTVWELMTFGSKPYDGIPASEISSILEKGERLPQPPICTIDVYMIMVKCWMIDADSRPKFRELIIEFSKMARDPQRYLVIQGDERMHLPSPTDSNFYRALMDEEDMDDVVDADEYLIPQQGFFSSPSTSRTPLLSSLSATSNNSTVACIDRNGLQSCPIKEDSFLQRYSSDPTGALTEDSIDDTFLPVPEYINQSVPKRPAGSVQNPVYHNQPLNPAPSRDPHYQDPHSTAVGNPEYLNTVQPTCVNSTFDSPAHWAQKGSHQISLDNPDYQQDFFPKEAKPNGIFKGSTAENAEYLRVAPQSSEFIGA
`CC#CC(=NOCC(=O)NCCO)c1ccc2ncnc(Nc3ccc(COc4cccc(F)c4)c(Cl)c3)c2c1` had an IC50 of 122 nM.

The compound `C#CCN1CCC[C@H]1CON=C(C#CC)c1ccc2ncnc(Nc3ccc(OCc4cccc(F)c4)c(Cl)c3)c2c1` came in with an IC50 of 275 nM.

`CC#CC(=NOC[C@@H]1C[C@H](O)CN1)c1ccc2ncnc(Nc3ccc4c(cnn4Cc4cccc(F)c4)c3)c2c1` returned an IC50 of 9.7 nM.

Turning to `CC#CC(=NOCC(=O)NCCN(C)C)c1ccc2ncnc(Nc3ccc(COc4cccc(F)c4)c(Cl)c3)c2c1`, the IC50 worked out at 20 nM.

`CN(N=Cc1ccc2ncnc(Nc3ccc(COc4cccc(F)c4)c(Cl)c3)c2c1)c1ccccc1` gave a half-inhibitory concentration (IC50) of 426 nM.

On to `CC#CC(=NOC[C@@H]1COCCN1)c1ccc2ncnc(Nc3ccc(OCc4ccccn4)c(Cl)c3)c2c1`, for which the IC50 turned out to be 6.2 nM.

In the case of `COC[C@@H]1CCCN1N=Cc1ccc2ncnc(Nc3ccc(COc4cccc(F)c4)c(Cl)c3)c2c1`, the IC50 stood at 344 nM.

Compound `CC#CC(=NOC[C@H]1COCCN1)c1ccc2ncnc(Nc3ccc(OCc4cccc(F)c4)c(Cl)c3)c2c1` gave an IC50 of 118 nM.

`CC#CC(=NOCC(=O)NCCOS(C)(=O)=O)c1ccc2ncnc(Nc3ccc(COc4cccc(F)c4)c(Cl)c3)c2c1` returned a half-inhibitory concentration (IC50) of 47 nM.

For the compound `Fc1cccc(OCc2ccc(Nc3ncnc4ccc(C=NN5CCCCC5)cc34)cc2Cl)c1`, the IC50 was determined as 193 nM.

In turn, `CC#CC(=NOC[C@@H]1COCCN1)c1ccc2ncnc(Nc3ccc(OCc4cccc(F)c4)c(Cl)c3)c2c1` registered an IC50 of 101 nM.
